Results published in patent US4389343A, “Immunopotentiating peptides from thymus” (Hoffmann-La Roche Inc., priority 1981, dated 1983).
Where no end group is shown, it is not given here.

Legend:
[1] = isoelectric point by preparative isoelectric focusing; assay type: physicochemical
Experimental: It is preferred that the compound of formula II be separated conventionally from Thymosin Fraction 5 using preparative isoelectric focusing, with the proteins recovered therefrom being purified by HPLC. By such a procedure, for example, 1.2 grams of Thymosin Fraction 5 provided 16 mg of thymosin α1, 16 mg of thymosin β4 and 1 mg of the compound of formula II. The isoelectric point for the compound of formula II was pH 4.62.
Any reverse phase hydrophobic resin may be employed in a conventional manner in the HPLC isolation. Among such resins there are included, for example, a hydrocarbon (C8 to C18) on any inert matrix such as silica gel, glass, polysaccharides and the like, which matrix is inert to the eluting agent being employed. The preferred resin is a straight chain C18 hydrocarbon bonded to silica gel or glass beads. […]
A sample of thymosin Fraction 5 (1.2 g) was dissolved in 100 ml of 2% ampholine for separation in the pH range 4-6 and filtered through a 0.45 μm molecular pore filter. […] The focused gel was cut with a grid into 30 sections, each of which was eluted on a small column with 5 ml of H2 O. The pH of eluate was determined at 0° C. […] Fractions (0.7 ml) were collected every 2 min and aliquots (5 μl of a 1:25 dilution) of each aliquot analyzed by direct injection into the borate buffer line of the fluorescamine detector, because the automatic column monitoring was off-scale.

[2] = system: Candida albicans ATCC 10231; experiment: protective activity against opportunistic infections in immunosuppressed mice; assay type: in vivo; conditions: female ddY mice infected with Candida albicans 24 hours after last treatment
Experimental: The compounds of formula I were tested for protective activity against opportunistic infections in immunosuppressed mice. Female ddY mice (6 weeks old) weighing about 25 g were pretreated daily for eight days with 5-fluorouracil (5-FU) (25 mg/kg/day, i.p.) and with thymosin α1or with compounds of formula I (i.p.) at varying dosages. The mice were then infected with Candida albicans ATCC 10231 (1×10^5 cells or more) at 24 hours after the last treatment. One control group was administered 5-FU and saline solution and a second control group received neither 5-FU nor a thymic polypeptide prior to infection with Candida albicans.

[3] = 0.4 μg/kg/day i.p. daily for eight days with 5-FU 25 mg/kg/day i.p.
[4] = 4 μg/kg/day i.p. daily for eight days with 5-FU 25 mg/kg/day i.p.
[5] = 40 μg/kg/day i.p. daily for eight days with 5-FU 25 mg/kg/day i.p.

Substance	isoelectric point [1] [pH]	Survivors at Day 8 [2, 3]	Survivors at Day 15 [2, 3]	Survivors at Day 8 [2, 4]	Survivors at Day 15 [2, 4]	Survivors at Day 8 [2, 5]	Survivors at Day 15 [2, 5]
Thymosin β8: polypeptide isolated from calf thymus Fraction 5, 4,518 daltons, 39 amino acid residues, NH2-terminus acetyl alanine (ADKPDLGEINSFDKAKLKKTETQEKNTLPTKETIEQEKQ; thymosin beta-8 N-terminal acetyl; UniProt P21752 2-40, looked up, fragment)	4.62	–	–	–	–	–	–
Thymosin β4: peptide isolated from Thymosin Fraction 5 containing 44 amino acid residues	–	7/10	6/10	5/10	5/10	1/10	1/10
Thymosin β9: polypeptide from fresh frozen calf thymus, identical to thymosin β8 plus --Ala--LysOH at the COOH-terminus, 4,717 daltons, 41 amino acids (ADKPDLGEINSFDKAKLKKTETQEKNTLPTKETIEQEKQAK; not fully specified; Thymosin beta-9; UniProt P21752 2-42, looked up)	5.14	–	–	–	–	–	–
Thymosin α1: acidic peptide containing 28 amino acid residues isolated from Thymosin Fraction 5, U.S. Pat. No. 4,079,127 (SDAAVDTSSEITTKDLKEKKEVVEEAEN; ends and bridges not checked; UniProt P01252 2-29, looked up)	–	–	–	7/10	6/10	7/10	7/10
